PubChem BioAssay AID2060485 (Molecular Pharmacology Branch, DTP, NCI, 2025)
Where “and” joins values, the source holds several entries; their conditions need not be identical. Equal values may be shown once.

Tested on: A375 multi-cell spheroids with HUVEC/MSC, viability
Test: Anticancer human tumor A375 cell line growth inhibition [GQUAD];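 note: spheroids exposed to compounds for seven days before readout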
Conditions: for viability, T/C: stronger effect = lower value
Source text: DNA G-quadruplex Stabilizer Agents in Combinations in Complex Spheroids
A high-throughput screen of multi-cell type tumor spheroids was designed to identify active combinations of DNA G-quadruplex stabilizer agents and targeted small molecules. Complex spheroids include a stromal component modeled by human endothelial cells (HUVEC) and fibroblasts modeled by human mesenchymal stem cells (MSCs). The concentration ranges selected for each drug and investigational agent were based upon clinically achievable concentrations if the clinical Cmax of the agent was known.
Compounds. The drugs and investigational agents: pidnarulex (CX-5461; NSC782164), APTO-253 (NSC789042), BRACO-19 (NSC847499), peposertib (NSC802822), ceralasertib (NSC780249), elimusertib (NSC800525), camonsertib (NSC841442), AZD-1390 (NSC803789), olaparib (NSC753686), talazoparib (NSC767125), ART-558 (NSC835418), sotorasib (NSC818433), MRTX-1133 (NSC836407), SN-38 (NSC673596), topotecan (NSC609699), etoposide (NSC141540), doxorubicin (NSC123127), gemcitabine (NSC613327), 5-fluorouracil (NSC19893), paclitaxel (NSC125973), vemurafenib (NSC761431), panobinostat (NSC761190), R-306465 (JNJ-16241199; NSC773264), adavosertib (NSC754352), TP-3654 (NSC805149), carboplatin (NSC241240), KSQ-4279 (NSC840948), and staurosporine (NSC755774) were obtained from the National Cancer Institute (NCI) Developmental Therapeutics Program Chemical Repository (34). The FDA-approved anticancer drug set is available from the NCI Developmental Therapeutics Program. […] The stock solutions were prepared in dimethyl sulfoxide (DMSO, Sigma-Aldrich, St. Louis, MO, cat. D2650) at 800-fold the tested concentration and stored at -70 degrees C prior to their use. All drugs and investigational agents were tested over a range starting from a high concentration at or near the clinical Cmax and decreasing in half-log increments. If the clinical Cmax for an agent had not been determined, the highest concentration tested was 10 microM.
2.3 Cell Culture. All cells were maintained in an incubator at 37 degrees C and 5% CO2 with 95% humidity. The PDC lines were cultured according to standard operating procedures established by the NCI PDMR. All PDCs were thawed and cultured in Matrigel-coated flasks prepared with a working solution of 1X Ham's F-12 nutrient mix, without supplementation (Invitrogen, cat. 11765054), 100 U/mL penicillin-streptomycin (Invitrogen, cat. 15140122), and 2.5% Matrigel (Corning Inc., cat. 354248) for the first three passages. The 857933-349-R-J2-PDC line was cultured in 6C/Colon 1B media, which includes advanced DMEM/F-12 (Thermo Fisher Scientific, cat. 12634028), 10 mM HEPES (Thermo Fisher Scientific, cat. 15630080), 1X GlutaMAX supplement (Thermo Fisher Scientific, cat. 35050061), 0.1 mg/mL primocin (InvivoGen, cat. ant-pm-2), 10% defined fetal bovine serum, heat inactivated (HyClone Laboratories Inc., cat. SH30070.03HI), 50% L-WRN conditioned media (ATCC, cat. CRL-3276), 1.25 mM N-Acetyl-L-cysteine (Sigma-Aldrich, cat. A9165), 10 mM nicotinamide (Sigma-Aldrich, cat. N0636), 1X B-27 supplement (Thermo Fisher Scientific, cat. 17504044), 1X N-2 supplement (Thermo Fisher Scientific, cat. 17502048), 10 microM Y-27632 dihydrochloride (Tocris Bioscience, cat. 1254), and 50 ng/mL human EGF recombinant protein (Thermo Fisher Scientific, cat. PHG0311). The 485176-168-R4-J1-PDC line was cultured in Panc media, which includes all 6C/Colon 1B media components plus 100 ng/mL human FGF-10 (Thermo Fisher Scientific, cat. 100-26), 500 nM SB-431542 (Selleckchem, cat. S1067), and gastrin (Tocris, cat. 3006).
[…]

**Q.** Cc1[nH]c2ccc(F)cc2c1-c1nc2c3cccnc3c3ncccc3c2[nH]1 was tested. Which viability, T/C (compound 0.0316 µM) did it give?
**A.** Its viability, T/C is 99.2% [middle of 12 runs].

**Q.** And the viability, T/C (compound 0.1 µM)?
**A.** Its viability, T/C is 99.6% [middle of 12 runs].

**Q.** What about the viability, T/C (compound 0.316 µM) of the same compound?
**A.** Its viability, T/C is 103% [middle of 12 runs].

**Q.** What about the viability, T/C (compound 1 µM) of the same compound?
**A.** Its viability, T/C is 102% [middle of 12 runs].

**Q.** And the viability, T/C (compound 10 µM)?
**A.** The viability, T/C was 100% [middle of 12 runs].

**Q.** And the IC50 (compound alone, run of 03/18/2024)?
**A.** The IC50 was > 10000 nM.

**Q.** And the IC50 (compound alone, run of 03/26/2024)?
**A.** The IC50 was > 10000 nM.

**Q.** Which results are given for CC(C)(O)C1CCC(Nc2ccc3ncc(-c4cccc(C(F)(F)F)c4)n3n2)CC1 (stereo unspecified)?
**A.** viability, T/C (compound 0.0316 µM): 104% and 93.2% and 105%; viability, T/C (compound 0.1 µM): 105% and 99.9% and 95.9%; viability, T/C (compound 0.316 µM): 99.1% and 95.6% and 91.5%; viability, T/C (compound 1 µM): 97.7% and 95.2% and 105%; viability, T/C (compound 3.16 µM): 90.2% and 83.5% and 92%; viability, T/C (compound 10 µM): 87.5% and 88% and 97.8%; IC50 (curve of compound): > 10000 nM

**Q.** For CCc1c2c(nc3ccc(O)cc13)-c1cc3c(c(=O)n1C2)COC(=O)[C@]3(O)CC + CN(C)c1ccc(Nc2c3ccc(NC(=O)CCN4CCCC4)cc3nc3cc(NC(=O)CCN4CCCC4)ccc23)cc1, which IC50 (curve of first compound, second compound 0.0316 µM) is on record?
**A.** The IC50 was < 0.999 nM.

**Q.** And the IC50 (curve of first compound, second compound 0.1 µM)?
**A.** The IC50 was < 0.999 nM.

**Q.** And the IC50 (curve of first compound, second compound 0.316 µM)?
**A.** Its IC50 is < 0.999 nM.

**Q.** What about the IC50 (curve of first compound, second compound 1 µM) of the same compound?
**A.** The IC50 was < 0.999 nM.

**Q.** What about the IC50 (curve of first compound, second compound 3.16 µM) of the same compound?
**A.** Its IC50 is < 0.999 nM.

**Q.** And the IC50 (curve of first compound, second compound 10 µM)?
**A.** The IC50 was < 0.999 nM.

**Q.** And the viability, T/C (second compound 0.0316 µM, first compound 0.000999 µM)?
**A.** Its viability, T/C is 41.2%.

**Q.** What about the viability, T/C (second compound 0.0316 µM, first compound 0.00316 µM) of the same compound?
**A.** The viability, T/C was 16.1%.

**Q.** And the viability, T/C (second compound 0.0316 µM, first compound 0.00999 µM)?
**A.** The viability, T/C was 10.6%.

**Q.** And the viability, T/C (second compound 0.0316 µM, first compound 0.0316 µM)?
**A.** Its viability, T/C is 15%.

**Q.** And the viability, T/C (second compound 0.0316 µM, first compound 0.0999 µM)?
**A.** The viability, T/C was 5.91%.

**Q.** And the viability, T/C (second compound 0.0316 µM, first compound 0.316 µM)?
**A.** The viability, T/C was 0.85%.

**Q.** What about the viability, T/C (second compound 0.1 µM, first compound 0.000999 µM) of the same compound?
**A.** Its viability, T/C is 39%.

**Q.** What about the viability, T/C (second compound 0.1 µM, first compound 0.00316 µM) of the same compound?
**A.** Its viability, T/C is 14.4%.

**Q.** And the viability, T/C (second compound 0.1 µM, first compound 0.00999 µM)?
**A.** Its viability, T/C is 11.6%.

**Q.** And the viability, T/C (second compound 0.1 µM, first compound 0.0316 µM)?
**A.** Its viability, T/C is 13.6%.

**Q.** What about the viability, T/C (second compound 0.1 µM, first compound 0.0999 µM) of the same compound?
**A.** Its viability, T/C is 5.7%.

**Q.** What about the viability, T/C (second compound 0.1 µM, first compound 0.316 µM) of the same compound?
**A.** The viability, T/C was 0.92%.

**Q.** And the viability, T/C (second compound 0.316 µM, first compound 0.000999 µM)?
**A.** Its viability, T/C is 40.8%.

**Q.** And the viability, T/C (second compound 0.316 µM, first compound 0.00316 µM)?
**A.** Its viability, T/C is 14.2%.

**Q.** What about the viability, T/C (second compound 0.316 µM, first compound 0.00999 µM) of the same compound?
**A.** The viability, T/C was 11.6%.

**Q.** What about the viability, T/C (second compound 0.316 µM, first compound 0.0316 µM) of the same compound?
**A.** The viability, T/C was 15.8%.

**Q.** What about the viability, T/C (second compound 0.316 µM, first compound 0.0999 µM) of the same compound?
**A.** The viability, T/C was 5.11%.

**Q.** And the viability, T/C (second compound 0.316 µM, first compound 0.316 µM)?
**A.** The viability, T/C was 1.17%.

**Q.** What about the viability, T/C (second compound 1 µM, first compound 0.000999 µM) of the same compound?
**A.** The viability, T/C was 44.3%.

**Q.** What about the viability, T/C (second compound 1 µM, first compound 0.00316 µM) of the same compound?
**A.** Its viability, T/C is 17.9%.

**Q.** What about the viability, T/C (second compound 1 µM, first compound 0.00999 µM) of the same compound?
**A.** Its viability, T/C is 12.2%.

**Q.** And the viability, T/C (second compound 1 µM, first compound 0.0316 µM)?
**A.** Its viability, T/C is 15.3%.

**Q.** And the viability, T/C (second compound 1 µM, first compound 0.0999 µM)?
**A.** Its viability, T/C is 5%.

**Q.** And the viability, T/C (second compound 1 µM, first compound 0.316 µM)?
**A.** Its viability, T/C is 0.92%.

**Q.** What about the viability, T/C (second compound 3.16 µM, first compound 0.000999 µM) of the same compound?
**A.** The viability, T/C was 45.6%.

**Q.** And the viability, T/C (second compound 3.16 µM, first compound 0.00316 µM)?
**A.** The viability, T/C was 14.8%.

**Q.** And the viability, T/C (second compound 3.16 µM, first compound 0.00999 µM)?
**A.** The viability, T/C was 10.9%.

**Q.** What about the viability, T/C (second compound 3.16 µM, first compound 0.0316 µM) of the same compound?
**A.** Its viability, T/C is 12.6%.

**Q.** And the viability, T/C (second compound 3.16 µM, first compound 0.0999 µM)?
**A.** The viability, T/C was 6.28%.

**Q.** What about the viability, T/C (second compound 3.16 µM, first compound 0.316 µM) of the same compound?
**A.** The viability, T/C was 1.02%.

**Q.** And the viability, T/C (second compound 10 µM, first compound 0.000999 µM)?
**A.** Its viability, T/C is 46.9%.

**Q.** What about the viability, T/C (second compound 10 µM, first compound 0.00316 µM) of the same compound?
**A.** Its viability, T/C is 18.2%.

**Q.** And the viability, T/C (second compound 10 µM, first compound 0.00999 µM)?
**A.** The viability, T/C was 10.9%.

**Q.** What about the viability, T/C (second compound 10 µM, first compound 0.0316 µM) of the same compound?
**A.** The viability, T/C was 13%.

**Q.** And the viability, T/C (second compound 10 µM, first compound 0.0999 µM)?
**A.** Its viability, T/C is 6.82%.

**Q.** And the viability, T/C (second compound 10 µM, first compound 0.316 µM)?
**A.** The viability, T/C was 0.96%.
